Test results taken from the supplement of paper PMC7840683.
± gives the standard deviation of the averaged measurements.

Tested on: HepaRG
Assay: LDH release cytotoxicity, % of total lysis control; higher = more cytotoxic
Conditions: 48 h
Outline: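 Eight-point half-log series of test chemicals, the highest at 100 µM, were given in duplicate for 48 h to single-lot HepaRG cells on collagen I-coated 96-well plates in serum-free induction medium with 0.5% DMSO. A Tecan Safire read resorufin fluorescence from CytoTox-ONE as a measure of LDH in 50 µL spent medium, with 0.1% Triton X in total lysis wells. Percent cytotoxicity was normalized to on-plate vehicle and total lysis controls and averaged over the duplicates.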

Row | Compound | LDH release cytotoxicity (0.03162 µM) | LDH release cytotoxicity (0.1 µM) | LDH release cytotoxicity (0.3162278 µM) | LDH release cytotoxicity (1 µM) | LDH release cytotoxicity (3.16228 µM) | LDH release cytotoxicity (10 µM) | LDH release cytotoxicity (31.6228 µM) | LDH release cytotoxicity (100 µM) | also measured
1 | CCCCOC(=O)c1ccccc1 [Butyl benzoate] | -1.31 ± 0.5% | -1.78 ± 0.16% | -2.41 ± 0.59% | -1.63 ± 0.22% | -1.96 ± 0.76% | -1.46 ± 0.092% | -1.03 ± 0.64% | 0.0897 ± 0.95% | 
2 | CCSC(=O)N(CC(C)C)CC(C)C [Butylate] | -1.39 ± 0.082% | -1.51 ± 1.6% | -0.761 ± 0.31% | -1.26 ± 0.046% | -0.761 ± 0.45% | -0.00901 ± 0.45% | -0.0439 ± 1.2% | -0.00901 ± 0.1% | 
3 | CCCCc1ccccc1 [Butylbenzene] | -0.0627 ± 1.5% | -0.967 ± 0.77% | -0.793 ± 0.85% | -0.547 ± 0.22% | -0.941 ± 0.17% | -0.027 ± 0.041% | -0.00747 ± 0.57% | 1.27 ± 0.2% | 
4 | CCCCOC(=O)c1ccc(O)cc1 [Butylparaben] | -1.57 ± 0.12% | -1.1 ± 0.021% | -1.42 ± 0.72% | -2.15 ± 1.2% | -2.51 ± 0.09% | -2.14 ± 0.23% | -2.11 ± 0.81% | -0.69 ± 0.9% | 
5 | CCCCCCOC(=O)CC(CC(=O)OCCCCCC)(OC(=O)CCC)C(=O)OCCCCCC [Butyryl-n-trihexylcitrate] | -0.556 ± 0.23% | -0.753 ± 0.66% | -0.622 ± 0.2% | -0.825 ± 0.23% | -0.796 ± 0.43% | -0.597 ± 0.75% | -0.0452 ± 0.87% | 0.5774 ± 0.0031% | 
6 | Oc1ccc2ccccc2c1N=Nc1ccccc1 [C.I. Solvent Yellow 14] |  | -3.7 ± 0.61% |  | -2.66 ± 0.24% | -0.781 ± 0.44% | -0.446 ± 0.2% | -2.17 ± 0.29% | -3.46 ± 0.19% | LDH release cytotoxicity (0.031623 µM): -0.466 ± 2.1%; LDH release cytotoxicity (0.316228 µM): -3.44 ± 1.2%
7 | COc1ccc2sc(C(=O)Nc3nnn[nH]3)c(OC(C)C)c2c1 [CI-959] | -0.617 ± 0.98% | -2.08 ± 0.33% | -1.65 ± 0.028% | -1.45 ± 0.29% | -2.51 ± 0.029% | -2.33 ± 0.67% | 3.57 ± 1.1% | 9.3 ± 1.3% | 
8 | Cc1cc2c3c(c1)C(c1ccccc1)=NC(NC(=O)c1ccncc1)C(=O)N3CC2 (stereo not given) [CI-1018] | -1.91 ± 0.18% | -1.63 ± 0.47% | -1.51 ± 1.7% | -2.27 ± 0.065% | -1.93 ± 0.3% | -1.89 ± 0.24% | -2.24 ± 0.049% | 5.94 ± 0.8% | 
9 | Cc1cc(SC2C(=O)CC(CCc3ccc(N)cc3)(C(C)C)OC2=O)c(C(C)(C)C)cc1CO (stereo not given) [CI-1029] | -0.634 ± 0.8% | -3.84 ± 0.53% | -3.74 ± 0.38% | -3.966 ± 0.027% | -4.19 ± 0.59% | -3.49 ± 0.12% | -3.96 ± 0.73% | -2.25 ± 0.55% | 
10 | Nc1cc2c3c(c1)C(c1ccccc1)=NC(NC(=O)c1cccnc1)C(=O)N3CC2 (stereo not given) [CI-1044] | -1.32 ± 0.016% | -0.234 ± 0.4% | -1.37 ± 0.23% | -0.0936 ± 0.47% | -0.301 ± 0.14% | 0.515 ± 1.5% | 0.683 ± 0.68% | 0.815 ± 1.6% | 
11 | Cn1c(=O)c2c(ncn2C)n(C)c1=O [Caffeine] | -1.5 ± 0.32% | -0.664 ± 0.51% | -1.14 ± 0.54% | -0.9619 ± 0.0096% | -1.02 ± 0.75% | -0.778 ± 0.5% | -0.135 ± 0.4% | 1.03 ± 1.2% | 
12 | COCCOCC(CC1(C(=O)NC2CCC(C(=O)O)CC2)CCCC1)C(=O)Oc1ccc2c(c1)CCC2 (stereo not given) [Candoxatril] | -0.831 ± 0.098% | -1.91 ± 0.43% | -0.642 ± 0.1% | -1.61 ± 0.11% | -1.03 ± 0.12% | -0.79 ± 0.29% | -0.798 ± 0.39% | 0.54 ± 0.26% | 
13 | O=C1CCCCCN1 [Caprolactam] | -0.496 ± 0.65% | -1.92 ± 0.24% | -1.76 ± 0.37% | -0.953 ± 0.14% | -0.455 ± 0.46% | -0.823 ± 0.29% | -0.101 ± 0.44% | 1.84 ± 0.57% | 
14 | O=C1C2CC=CCC2C(=O)N1SC(Cl)(Cl)Cl (stereo not given) [Captan] |  |  |  |  |  |  |  |  | LDH release cytotoxicity (0.03115 µM): -0.761 ± 0.69%; LDH release cytotoxicity (0.0985 µM): -0.69 ± 1%; LDH release cytotoxicity (0.311484 µM): -1.02 ± 0.74%; LDH release cytotoxicity (0.985 µM): -1.31 ± 0.14%; LDH release cytotoxicity (3.11484 µM): -1.78 ± 0.61%; LDH release cytotoxicity (9.85 µM): -0.651 ± 0.36%; LDH release cytotoxicity (31.1484 µM): 0.632 ± 0.25%; LDH release cytotoxicity (98.5 µM): 27.6 ± 5.5%
15 | CC(=O)c1ccc2c(c1)C(NC(=O)c1ccc(F)cc1)C(O)C(C)(C)O2 (stereo not given) [Carabersat] |  |  |  |  |  |  |  |  | LDH release cytotoxicity (0.0308322 µM): -0.845 ± 0.35%; LDH release cytotoxicity (0.0975 µM): -1.53 ± 0.47%; LDH release cytotoxicity (0.308322 µM): -2.26 ± 1.3%; LDH release cytotoxicity (0.975 µM): -2.21 ± 0.25%; LDH release cytotoxicity (3.0832207 µM): -1.81 ± 0.28%; LDH release cytotoxicity (9.75 µM): -1.6 ± 0.32%; LDH release cytotoxicity (30.832207 µM): -1.02 ± 0.098%; LDH release cytotoxicity (97.5 µM): 0.388 ± 0.96%
16 | NC(=O)N1c2ccccc2C=Cc2ccccc21 [Carbamazepine] | -0.712 ± 0.62% | -0.993 ± 0.65% | -1.39 ± 0.76% | -0.89 ± 0.085% | -0.514 ± 0.98% | -1.28 ± 0.24% | -1.043 ± 0.0064% | 0.39 ± 0.34% | 
17 | CNC(=O)Oc1cccc2ccccc12 [Carbaryl] | -0.447 ± 0.24% | -1.82 ± 1.5% | -1.28 ± 0.7% | -0.688 ± 1.2% | -0.561 ± 0.076% | 0.0525 ± 0.91% | 0.246 ± 1.1% | 0.543 ± 0.82% | 
18 | COC(=O)Nc1nc2ccccc2[nH]1 [Carbendazim] | -1.09 ± 0.92% | -0.973 ± 1.7% | -1.51 ± 0.71% | -1.78 ± 0.15% | -1.63 ± 0.052% | 7.25 ± 0.6% | 7.37 ± 0.77% | 8.69 ± 0.71% | 
19 | CNC(=O)Oc1cccc2c1OC(C)(C)C2 [Carbofuran] | -0.0403 ± 0.34% | -0.693 ± 0.36% | -0.49 ± 1.3% | -0.23 ± 0.93% | -0.812 ± 0.2% | -1.07 ± 0.049% | -0.52 ± 0.15% | 0.343 ± 0.33% | 
20 | CCCCN(CCCC)SN(C)C(=O)Oc1cccc2c1OC(C)(C)C2 [Carbosulfan] | -3.56 ± 2.3% | -0.722 ± 0.37% | -0.938 ± 0.067% | -0.712 ± 0.067% | 0.429 ± 0.12% | 0.717 ± 0.68% | -0.247 ± 0.45% | 0.466 ± 0.2% | 
